Experimental data published in the NIST ThermoML archive (doi:10.1016/j.fluid.2013.12.008).

Experiments:
[1] = 101 kPa, Liquid; for viscosity: Falling or rolling sphere viscometry; for mass density: Vibrating tube method
[2] = xn = mol fraction of the nth substance listed; settings: 101 kPa, Liquid; for viscosity: Falling or rolling sphere viscometry; for mass density: Vibrating tube method

CCn1cc[n+](C)c1.N#C[C-](C#N)C#N [1-ethyl-3-methyl-1H-imidazolium tricyanomethanide]
[1]
Settings | mass density [kg/m3] | viscosity [mPa·s]
293.15 K | 1085.2 | 17.72
303.15 K | 1078.1 | 12.88
313.15 K | 1071.1 | 9.8
323.15 K | 1064.1 | 7.73
333.15 K | 1057.2 | 5.93
343.15 K | 1050.4 | 4.91
353.15 K | 1043.6 | 4.15

CCn1cc[n+](C)c1.N#CN=C=[N-] [1-ethyl-3-methylimidazolium dicyanamide] + CCn1cc[n+](C)c1.N#C[C-](C#N)C#N
[2], x2 = 0
Settings | mass density [kg/m3] | viscosity [mPa·s]
293.15 K | 1104.6 | 17.54
303.15 K | 1098 | 13.11
313.15 K | 1091.4 | 10.17
323.15 K | 1084.9 | 8.13
333.15 K | 1078.5 | 6.66
343.15 K | 1072.1 | 5.58
353.15 K | 1065.8 | 4.75

CCn1cc[n+](C)c1.N#C[C-](C#N)C#N [1-ethyl-3-methyl-1H-imidazolium tricyanomethanide] + CCn1cc[n+](C)c1.N#CN=C=[N-]
[2]
Settings | mass density, x1 = 0.2 [kg/m3] | mass density, x1 = 0.4 [kg/m3] | mass density, x1 = 0.6 [kg/m3] | mass density, x1 = 0.8 [kg/m3] | mass density, x1 = 1 [kg/m3] | viscosity, x1 = 0.2 [mPa·s] | viscosity, x1 = 0.4 [mPa·s] | viscosity, x1 = 0.6 [mPa·s] | viscosity, x1 = 0.8 [mPa·s] | viscosity, x1 = 1 [mPa·s]
293.15 K | 1099.9 | 1095.8 | 1091.9 | 1088.4 | 1085.2 | 17.55 | 17.59 | 17.6 | 17.64 | 17.72
303.15 K | 1093.2 | 1088.9 | 1085 | 1081.4 | 1078.1 | 13.05 | 13.02 | 13.01 | 12.89 | 12.88
313.15 K | 1086.5 | 1082.2 | 1078.1 | 1074.5 | 1071.1 | 10.12 | 10.05 | 10.02 | 9.89 | 9.8
323.15 K | 1079.9 | 1075.5 | 1071.3 | 1067.6 | 1064.1 | 7.92 | 7.84 | 7.8 | 7.77 | 7.73
333.15 K | 1073.4 | 1068.8 | 1064.6 | 1060.8 | 1057.2 | 6.26 | 6.22 | 6.19 | 6.15 | 5.93
343.15 K | 1066.9 | 1062.3 | 1057.9 | 1054.1 | 1050.4 | 5.23 | 5.21 | 5.2 | 5.1 | 4.91
353.15 K | 1060.5 | 1055.7 | 1051.3 | 1047.4 | 1043.6 | 4.44 | 4.42 | 4.38 | 4.32 | 4.15

CCn1cc[n+](C)c1.N#CN=C=[N-] [1-ethyl-3-methylimidazolium dicyanamide]
[1]
Settings | mass density [kg/m3] | viscosity [mPa·s]
293.15 K | 1104.6 | 17.54
303.15 K | 1098 | 13.11
313.15 K | 1091.4 | 10.17
323.15 K | 1084.9 | 8.13
333.15 K | 1078.5 | 6.66
343.15 K | 1072.1 | 5.58
353.15 K | 1065.8 | 4.75
